The source of these data is patent US4039674A, “3-(3-Methyl-2-octyl)-1-[4-(1-ho mopiperidine)butyryloxy]-6,6,9-trimethyl-7,8,9,10-tetrahydro-6H-dibenzo [b,d]pyran hydrochloride as an anticonvulsant agent” (Abbott Laboratories, priority 1976, dated 1977).

The ED50 is the dose that gives a 50% effect, or the effect in half of the subjects.

Entries after “also recorded” stand apart in the source; their conditions may differ. Counter-ions that a name gives are not always drawn. Like-named read-outs stand apart in the source and are kept apart here.

Data set [1] has as its system hind limb tonic extensor component of the audiogenic seizure. The experiment in a line: Audiogenic seizure in mice (tonic extensor component), single oral dose. In kind it is in vivo, male O'Grady strain mice. The conditions noted are these: for ED50: Mus musculus, po; for activity over time / time of peak effect: single oral dose, 1, 4 and 24 hours. The text has this: (§1) In this test, male O'Grady strain mice (14-16 grams) especially bred for susceptibility to audiogenic seizures were used as subjects. The audiogenic seizure apparatus consisted of a wooden box enclosing a metal container with two doorbells attached to the upper section. The test consisted of administering the test drug orally as a suspension in 10% olive oil and 90% Methocel (0.5%) to ten animals per dose. […] The test drugs included the present compound, DMHP, DPH, Δ^9 -THC and Phenobarbital.

Data set [2] has as its system all components of audiogenic seizures. The experiment in a line: Audiogenic seizure test in mice (complete seizure protection). Format: in vivo, male O'Grady strain mice. The conditions noted are these: single oral dose; for ED50: Mus musculus.
Text: as §1
The animals, diluent, apparatus and experimental procedure described in Example 1 above were used for the present test in mice to determine the complete seizure protection of the various compounds. The compounds tested included the present compound, DMHP and Δ^9 -THC.

For data set [3], the system named is hind limb tonic extension seizure (supramaximal electroshock). The data set can be described thus: Supramaximal electroshock seizures in rats (single oral dose). In kind it is in vivo, male Long-Evans rats. The conditions noted are these: for ED50: Rattus norvegicus, rats, single oral dose. An excerpt:
In this test, male Long-Evans rats (170-190 grams) were orally administered the test drugs as a suspension in olive oil and Methocel 0.5% to 5 or 10 animals per dose. At one and four hours post drug administration each animal received an electroshock (150 milliamp for 0.2 seconds) through corneal electrodes to produce a hind limb tonic extension seizure. The animals were considered protected when the hind limb tonic extensor component was blocked.
In general terms: In the maximal electroshock model the usual endpoint is tonic extension of the hind limbs.

Data set [4] concerns hind limb tonic extensor component of the audiogenic seizure. The experiment in a line: Audiogenic seizure test in mice (5-day chronic administration). In kind it is in vivo, male O'Grady strain mice. The conditions noted are these: for ED50: Mus musculus, fifth day, 4 hr post drug administration, read-out: Five day chronic audiogenic seizure test ED50 4 hr; for ED50 / activity in abolishing hind limb tonic extensor component: mice, oral; for activity in abolishing hind limb tonic extensor component: five consecutive days.
Text: as §1
In this test, the animals, diluent and apparatus described in Example 1, above, were used. The experimental procedure consisted of administering the test drugs orally for four days at 0.5 mg./kg. for the present compound and DMHP, and 1.0 and 0.1 mg./kg., respectively, for DPH and phenobarbital. On the fifth day of testing a dose response study (N=10 animals per dose) was initiated to obtain the ED50 for each compound.

The subject of data set [5] is hind limb tonic extension seizure (supramaximal electroshock). The data set can be described thus: Supramaximal electroshock test in rats (5-day chronic administration). In kind it is in vivo, male Long-Evans rats. The conditions noted are these: for ED50: Rattus norvegicus, 5-day oral administration, fifth day, 4 hr post drug administration, read-out: ED50 4 hr (50% of animals protected from hind limb tonic extension).

Data set [6] can be described thus: Side effects (sedation and irritability) on repeated medication. In kind it is in vivo. The conditions noted are these: within a few days of medication.
Where [7] appears, read: 1 h, mice, single oral dose, 1 hr post drug administration, read-out: 1 hr ED50 (50% of animals protected from hindlimb tonic extension).
Where [8] appears, read: 4 h, mice, single oral dose, 4 hr post drug administration, read-out: 4 hr ED50 (50% of animals protected from hindlimb tonic extension).
Where [9] appears, read: 24 h, mice, single oral dose, 24 hr post drug administration, read-out: 24 hr ED50 (50% of animals protected from hindlimb tonic extension).
[10] abbreviates: 1 hr, read-out: 1 hr ED50 (50% of animals protected from hindlimb tonic extension).
[11] abbreviates: 4 hr, read-out: 4 hr ED50 (50% of animals protected from hindlimb tonic extension).
Where [12] appears, read: 4 hr post drug administration, read-out: Complete seizure protection 4 hr ED50.
The mark [13] stands for this setting: 5-day oral, 2.5 mg./kg. (present compound, DMHP), 30.0 mg./kg. (DPH).

On to `CCCCCc1cc(O)c2c(c1)OC(C)(C)C1CCC(C)=CC21` (single isomer, unassigned) [Δ9-THC], for which the 50% effective dose (ED50) in data set [1] (setting [7]) is 5 mg/kg; in data set [1] (setting [8]), 38.8 mg/kg; in data set [1] (setting [9]), greater than 100 mg/kg; in data set [2] (1 h, one hour data, read-out: Complete seizure protection ED50 (one hour data)), 6.5 mg/kg; in data set [3] (setting [10]), 53.3 mg/kg; in data set [3] (setting [11]) it was 40.6 mg/kg. In data set [3] (24 hr, read-out: 24 hr ED50), the ED50 is greater than 200 mg/kg. The “activity over time / time of peak effect” value in data set [1] (mice) was “most active at the one hour period”.

In the case of `O=C1NC(=O)C(c2ccccc2)(c2ccccc2)N1` [DPH, diphenylhydantoin], the 50% effective dose (ED50) in data set [1] (setting [7]) was 1.7 mg/kg; in data set [1] (setting [8]) it was 3.3 mg/kg; in data set [1] (setting [9]) it was 11 mg/kg; in data set [4], less than 0.5 mg/kg; in data set [3] (setting [10]), 23 mg/kg; in data set [3] (setting [11]), 62.2 mg/kg. For the same molecule, the ED50 is greater than 200 mg/kg in data set [3] (24 hr, read-out: 24 hr ED50) and 26.6 mg/kg in data set [5].

Turning to `CCCCCC(C)C(C)c1cc(OC(=O)CCCN2CCCCCC2)c2c(c1)OC(C)(C)C1=C2CC(C)CC1` (stereo not shown) [Present compound, 3-(3-methyl-2-octyl)-1-[4-(1-homopiperidine)butyryloxy]-6,6,9-trimethyl-7,8,9,10-tetrahydro-6H-dibenzo[b,d]pyran hydrochloride], the ED50 was 6.8 mg/kg in data set [1] (setting [7]); 1.1 mg/kg in data set [1] (setting [8]); 55.9 mg/kg in data set [1] (setting [9]); 1 to 2 mg/kg in data set [1] (daily, general description, read-out: oral ED50 for blocking the tonic extensor component of audiogenic seizures); 7.8 mg/kg in data set [2] (setting [12]); 0.7 mg/kg in data set [4]. Moreover, the median effective dose (ED50) is 60.6 mg/kg in data set [3] (setting [10]); 7.4 mg/kg in data set [3] (setting [11]); greater than 150 mg/kg in data set [3] (24 hr, read-out: 24 hr ED50); 37.2 mg/kg in data set [5]. The “24 hr ED50 (50% of animals protected from hindlimb tonic extension)” value in data set [1] (mice, single oral dose, 24 hr post drug administration, hydrochloride, 1440 min) was 55.5 mg/kg. In addition, the “anti-convulsant activity” value in data set [1] (mouse audiogenic seizure test, hydrochloride) is given as “marked activity in antagonizing the hind limb tonic extensor component; also recorded: potent anti-convulsant activity”; in data set [3] (rat supramaximal electroshock test, hydrochloride), “potent anti-convulsant activity; also recorded: marked activity in preventing the hind limb tonic extension feature of supramaximal electroshock”. Further, the “antagonism of preconvulsive running” value in data set [2] is listed as “preconvulsive running was not antagonized”. Also, the “retention of anticonvulsant activity on repeated medication” value in data set [4] (audiogenic seizure test in mice) is listed as “retained without any loss of the potency”. Also, in data set [4], the “activity in abolishing hind limb tonic extensor component” value is on record as “marked activity in abolishing the hind limb tonic extensor component”. Besides, the “tolerance to anticonvulsant activity” value in data set [5] (setting [13]) is given as “slight tolerance”; in data set [5] (daily higher doses such as 5.0 and 10.0 mg./kg.), “increase in tolerance”. In addition, the “tolerance to side effects of sedation and irritability” value in data set [6] is “marked tolerance develops to the side effects of sedation and irritability within a few days of medication”.

Consider `CCC1(c2ccccc2)C(=O)NC(=O)NC1=O` [Phenobarbital], for which the ED50 in data set [1] (setting [7]) was found to be 1.9 mg/kg; in data set [1] (setting [8]), 0.3 mg/kg; in data set [1] (setting [9]) it was 6 mg/kg; in data set [4], 0.1 mg/kg; in data set [3] (setting [10]), 22 mg/kg; in data set [3] (setting [11]) it was 18 mg/kg. Further, the ED50 in data set [3] (24 hr, read-out: 24 hr ED50) was greater than 40 mg/kg. The “activity over time / time of peak effect” value in data set [1] (mice) was “peak effect at four hours post drug administration”. For the same molecule, the “activity in abolishing hind limb tonic extensor component” value in data set [4] was “very active”.

Regarding `CCCCCC(C)C(C)c1cc(O)c2c(c1)OC(C)(C)C1=C2CC(C)CC1` (stereo not shown) [DMHP], the ED50 in data set [1] (setting [7]) worked out at 6.7 mg/kg; in data set [1] (setting [8]), 2.9 mg/kg; in data set [1] (setting [9]), 15.1 mg/kg; in data set [2] (setting [12]) it was 6.7 mg/kg; in data set [4] it was 1.6 mg/kg; in data set [3] (setting [10]), 4.6 mg/kg. For the same molecule, the median effective dose (ED50) in data set [3] (setting [11]) came out at 7.5 mg/kg; in data set [3] (24 hr, read-out: 24 hr ED50), 66.8 mg/kg; in data set [5], 26.7 mg/kg. Also, in data set [1] (mice), the “activity over time / time of peak effect” value is “active over a prolonged period (24 hours)”. Also, the “tolerance to anticonvulsant activity” value in data set [5] (setting [13]) is given as “slight tolerance”.
